Laboratory results: patent US20150039274A1, “SYSTEM AND METHOD FOR PERSONALIZED METABOLIC MODELING” (Ramot at Tel-Aviv University Ltd., priority 2013, published 2015)

Test system: RPMI-8226 cells
Test: Cell proliferation of RPMI-8226 cells with doxycycline-inducible MLYCD shRNA, with or without N-acetyl-cysteine
Assay type: cell-based, human
Conditions: RPMI-8226 shRNA cells; 2 mM N-Acetyl Cysteine
Protocol: HapMap cells (GM06997, CEPH/UTAH pedigree 13291) were obtained from Coriell Institute and RPMI-8226 and K562 cells were obtained from NCI-Frederick Cancer DCTD Tumor/Cell line Repository. Cells were grown in RPMI 1640 plus 10% fetal bovine serum (FBS) in the presence of 5% carbon dioxide. Cell count was determined using a CASY Cell Counter (Roche Applied Science). Where indicated, cells were incubated with 2 mM N-acetyl-cysteine.
The viral supernatant for infection was obtained from the filtered growth media of the packaging cells HEK293T transfected with 3 μg psPAX, 1 μg pVSVG, 4 μg of shRNA contructs and 24 μl Lipofectamine 2000 (Life Technology) and the relevant shRNAs. 5×10^5 cells were then plated on 6-well plates and infected with the viral supernatant in the presence of 4 μg/mL polybrene. After two days, the medium was replaced with selection medium containing 2 μg/mL puromycin.
The expression of the shRNA constructs was induced by incubating cells with 2 μg/mL Doxycyclin.

SMILES: CC(=O)N[C@@H](CS)C(=O)O [N-Acetyl-cysteine]
- cell proliferation of MLYCD-deficient cells in the presence of antioxidant: restored the proliferative defects
